Measurements taken from BindingDB's records for PubMed 36346645 (University of Copenhagen, 2022).

Target: Calcium/calmodulin-dependent protein kinase type II subunit alpha (Rattus norvegicus, UniProt P11275)
Test: Displacement of [3H]NCS-382 from CaMK2alpha in rat brain cortical membrane homogenates measured after 1 hr by TopCount scintillation counting method

Sequence of Calcium/calmodulin-dependent protein kinase type II subunit alpha (P11275 whole entry): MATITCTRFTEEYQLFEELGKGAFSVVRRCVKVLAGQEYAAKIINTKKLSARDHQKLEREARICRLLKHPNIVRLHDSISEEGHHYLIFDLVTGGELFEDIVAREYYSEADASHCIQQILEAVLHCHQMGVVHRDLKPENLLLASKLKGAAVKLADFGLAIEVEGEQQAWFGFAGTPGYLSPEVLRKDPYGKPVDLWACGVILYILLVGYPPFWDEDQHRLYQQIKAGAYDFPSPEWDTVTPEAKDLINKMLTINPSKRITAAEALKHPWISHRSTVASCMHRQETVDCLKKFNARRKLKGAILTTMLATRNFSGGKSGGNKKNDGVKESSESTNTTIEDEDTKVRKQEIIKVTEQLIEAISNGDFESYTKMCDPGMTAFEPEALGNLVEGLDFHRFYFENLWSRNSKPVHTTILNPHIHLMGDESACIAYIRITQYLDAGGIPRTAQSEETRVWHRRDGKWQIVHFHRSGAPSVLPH

O=C(O)/C=C1\CCCc2cc(I)ccc2C1O (stereo unspecified)
Ki: 50 nM
